Results taken from PubChem BioAssay (NCI).
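Cultured in 96-well plates, cells were exposed to test compound for 48 hours across five concentrations. The concentration for 50% growth inhibition is given as GI50. The concentration for full growth arrest is given as TGI.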

Key:
Test in all cases: NCI-60 cell line screen, 48 h
[1] = test system: 786-0 renal
[2] = test system: A498 renal
[3] = test system: A549 NSCLC
[4] = test system: ACHN renal
[5] = test system: BT-549 breast
[6] = test system: CAKI-1 renal
[7] = test system: CCRF-CEM leukemia
[8] = test system: COLO 205 colon
[9] = test system: DU-145 prostate
[10] = test system: HCC-2998 colon
[11] = test system: HCT-116 colon
[12] = test system: HCT-15 colon
[13] = test system: HL-60(TB) leukemia
[14] = test system: HOP-62 NSCLC
[15] = test system: HS 578T breast
[16] = test system: HT29 colon
[17] = test system: IGROV1 ovarian
[18] = test system: K-562 leukemia
[19] = test system: KM12 colon
[20] = test system: M14 melanoma
[21] = test system: MALME-3M melanoma
[22] = test system: MCF7 breast
[23] = test system: MDA-MB-231 breast
[24] = test system: MDA-MB-435
[25] = test system: MOLT-4 leukemia
[26] = test system: NCI-H226 lung
[27] = test system: NCI-H23 lung
[28] = test system: NCI-H460 lung
[29] = test system: NCI-H522 lung
[30] = test system: NCI/ADR-RES ovarian
[31] = test system: OVCAR-3 ovarian
[32] = test system: OVCAR-4 ovarian
[33] = test system: OVCAR-5 ovarian
[34] = test system: OVCAR-8 ovarian
[35] = test system: PC-3 prostate
[36] = test system: RPMI-8226 leukemia
[37] = test system: RXF 393 renal
[38] = test system: SF-268 CNS
[39] = test system: SF-295 CNS
[40] = test system: SF-539 CNS
[41] = test system: SK-MEL-28 melanoma
[42] = test system: SK-MEL-5 melanoma
[43] = test system: SK-OV-3 ovarian
[44] = test system: SN12C renal
[45] = test system: SNB-19 CNS
[46] = test system: SNB-75 CNS
[47] = test system: SR leukemia
[48] = test system: SW-620 colon
[49] = test system: T-47D breast
[50] = test system: TK-10 renal
[51] = test system: UACC-257 melanoma
[52] = test system: UACC-62 melanoma
[53] = test system: UO-31 renal

For `COc1cc(/C=C/C(=O)c2ccccc2)cc(OC)c1OC`, the GI50 [1] was 2.74 µM, the TGI [1] was 7.36 µM and the GI50 [2] was 12.3 µM. It also gave a TGI [2] of 25.3 µM, a GI50 [3] of 6.14 µM and a TGI [3] of 23 µM. For the same compound, the GI50 [4] was 2.31 µM, the TGI [4] was 6.29 µM and the GI50 [5] was 3.79 µM. For the same compound, the TGI [5] was 11.2 µM, the GI50 [6] was 5.61 µM and the TGI [6] was 19.9 µM. For the same compound, the GI50 [7] was 1.49 µM, the TGI [7] was 5.89 µM and the GI50 [8] was 9.32 µM. The TGI [8] was 21.7 µM, the GI50 [9] was 4.92 µM and the TGI [9] was 16.4 µM. It also gave a GI50 [10] of 12.3 µM, a TGI [10] of 25.6 µM and a GI50 [11] of 1.98 µM. For the same compound, the TGI [11] was 4.07 µM, the GI50 [12] was 1.99 µM and the TGI [12] was 5.26 µM. For the same compound, the GI50 [13] was 2.56 µM, the TGI [13] was 6.82 µM and the GI50 [14] was 6.06 µM. It also gave a TGI [14] of 19.7 µM, a GI50 [15] of 4.62 µM and a TGI [15] of 39.8 µM. For the same compound, the GI50 [16] was 2.47 µM, the TGI [16] was 5.37 µM and the GI50 [17] was 4.04 µM. For the same compound, the TGI [17] was 14.2 µM, the GI50 [18] was 3.23 µM and the TGI [18] was 10.7 µM. The GI50 [19] was 3.22 µM, the TGI [19] was 10.2 µM and the GI50 [20] was 3.27 µM. For the same compound, the TGI [20] was 11.6 µM, the GI50 [21] was 4.83 µM and the TGI [21] was 19.7 µM. The GI50 [22] was 0.398 µM, the TGI [22] was 10.3 µM and the GI50 [23] was 5.61 µM. The TGI [23] was 20 µM, the GI50 [24] was 3.06 µM and the TGI [24] was 11.3 µM. The GI50 [25] was 2.94 µM, the TGI [25] was 8.13 µM and the GI50 [26] was 2.96 µM. For the same compound, the TGI [26] was 14.3 µM, the GI50 [27] was 7.45 µM and the TGI [27] was 23.3 µM. For the same compound, the GI50 [28] was 2.25 µM, the TGI [28] was 5.91 µM and the GI50 [29] was 1.95 µM. It also gave a TGI [29] of 3.88 µM, a GI50 [30] of 3.38 µM and a TGI [30] of 15 µM. For the same compound, the GI50 [31] was 4.02 µM, the TGI [31] was 12.9 µM and the GI50 [32] was 4.53 µM. For the same compound, the TGI [32] was 19.4 µM, the GI50 [33] was 3.95 µM and the TGI [33] was 16.6 µM. It also gave a GI50 [34] of 2.95 µM, a TGI [34] of 11.8 µM and a GI50 [35] of 4.54 µM. It also gave a TGI [35] of 17.9 µM, a GI50 [36] of 2.38 µM and a TGI [36] of 6.29 µM. The GI50 [37] was 3.11 µM, the TGI [37] was 11.5 µM and the GI50 [38] was 4.2 µM. It also gave a TGI [38] of 17.5 µM, a GI50 [39] of 10.3 µM and a TGI [39] of 24.2 µM. For the same compound, the GI50 [40] was 2.96 µM, the TGI [40] was 10.1 µM and the GI50 [41] was 2.29 µM. The TGI [41] was 5.75 µM, the GI50 [42] was 4.12 µM and the TGI [42] was 15 µM. The GI50 [43] was 4.42 µM, the TGI [43] was 13.8 µM and the GI50 [44] was 2.94 µM. For the same compound, the TGI [44] was 10.9 µM, the GI50 [45] was 12.8 µM and the TGI [45] was 26.8 µM. The GI50 [46] was 10.2 µM, the TGI [46] was 22.2 µM and the GI50 [47] was 2.33 µM. It also gave a TGI [47] of 6.68 µM, a GI50 [48] of 2.48 µM and a TGI [48] of 7.2 µM. The GI50 [49] was 3.93 µM, the TGI [49] was 20.9 µM and the GI50 [50] was 10.2 µM. The TGI [50] was 22.2 µM, the GI50 [51] was 3.7 µM and the TGI [51] was 15 µM. The GI50 [52] was 2.23 µM, the TGI [52] was 5.7 µM and the GI50 [53] was 1.86 µM. It also gave a TGI [53] of 3.78 µM.
